Data published in US8592407B2, “Pyrrolo[2,1-c][1,4] benzodiazepine derivatives with dithiocarbamate side chains and process for the preparation thereof” (Council of Scientific & Industrial Research, priority 2008, dated 2013).

How the values were obtained:
calf thymus DNA (CT-DNA) = test: Thermal denaturation studies with duplex-form calf thymus DNA; assay type: binding; conditions: [PBD]:[DNA] 1:5, CT-DNA 100 μM, ligand 20 μM, pH 7.00; for ΔTm after incubation at 37° C. for 0 h: 0 h at 37° C.; for ΔTm after incubation at 37° C. for 18 h: 18 h at 37° C.
Procedure: Compounds have been subjected to thermal denaturation studies with duplex-form calf thymus DNA (CT-DNA) using an modification of a reported procedure (Newman, M. S. Carcinog-compr. Surv. 1976, 1, 203; (b) Hecht, S. S.; Loy, M.; Hoffman, Carcinog-compr. Surv. 1976, 1, 325). Working solutions in aqueous buffer (10 mM NaH2PO4/Na2HPO4, 1 mM Na2EDTA, pH 7.00+0.01) containing CT-DNA (100 μm in phosphate) and the PBD (20 μm) have been prepared by addition of concentrated PBD solutions in DMSO to obtain a fixed [PBD]/[DNA] molar ratio of 1:5. The DNA−PBD solutions have been incubated at 37° C. for 0 and 18 h prior to analysis. Samples have been monitored at 260 nm using a Beckman DU-800 spectrophotometer fitted with high performance temperature controller, and heated at 1° C. min^−1
in the 40-110° C. range. DNA helix[…]coil transition temperatures (Tm) have been obtained from the maxima in the d(A260)/dT derivative plots. Drug-induced alterations in DNA melting behavior are given by: ΔTm=Tm(DNA+PBD)−Tm (DNA alone), where the Tm value for the PBD-free CT-DNA is 69.1±0.01.

Leukemia panel = test: NCI screen, panel average; assay type: cell-based, human; conditions: for LC50 (50% lethal concentration): Homo sapiens, read-out: Log10 LC50 (concentration in mol/L causing 50% lethality) (converted); for Log10 GI50 (concentration in mol/L): Leukemia, average of six to eight cell lines
Melanoma panel = test: NCI screen, panel average; assay type: cell-based, human; conditions: for LC50: Homo sapiens, read-out: Log10 LC50 (concentration in mol/L causing 50% lethality) (converted); for Log10 GI50 (concentration in mol/L): Melanoma, average of six to eight cell lines
Ovarian panel = test: NCI screen, panel average; assay type: cell-based, human; conditions: for LC50 (50% lethal concentration): Homo sapiens, read-out: Log10 LC50 (concentration in mol/L causing 50% lethality) (converted); for Log10 GI50 (concentration in mol/L): Ovarian, average of six to eight cell lines
Breast panel = test: NCI screen, panel average; assay type: cell-based, human; conditions: for Log10 GI50 (concentration in mol/L): Breast, average of six to eight cell lines; for LC50: Homo sapiens, read-out: Log10 LC50 (concentration in mol/L causing 50% lethality) (converted)
HL-60(TB) = test: NCI in vitro cytotoxicity (SRB); assay type: cell-based; conditions: Homo sapiens; Leukemia HL-60(TB); 48 h exposure
K-562 = test: NCI in vitro cytotoxicity (SRB); assay type: cell-based; conditions: Homo sapiens, K562; Leukemia K-562; 48 h exposure
SR = test: NCI in vitro cytotoxicity (SRB); assay type: cell-based; conditions: Homo sapiens
HOP-62 = test: NCI in vitro cytotoxicity (SRB); assay type: cell-based; conditions: Homo sapiens
HOP-92 = test: NCI in vitro cytotoxicity (SRB); assay type: cell-based; conditions: Homo sapiens; Non-smallcell lung HOP-92; 48 h exposure
NCI-H23 = test: NCI in vitro cytotoxicity (SRB); assay type: cell-based; conditions: Homo sapiens; Non-smallcell lung NCI-H23; 48 h exposure
NCI-H460 = test: NCI in vitro cytotoxicity (SRB); assay type: cell-based; conditions: Homo sapiens; Non-smallcell lung NCI-H460; 48 h exposure
COLO 205 = test: NCI in vitro cytotoxicity (SRB); assay type: cell-based; conditions: Homo sapiens; Colon COLO 205; 48 h exposure
SF-539 = test: NCI in vitro cytotoxicity (SRB); assay type: cell-based; conditions: Homo sapiens; CNS SF-539; 48 h exposure
LOX IMVI = test: NCI in vitro cytotoxicity (SRB); assay type: cell-based; conditions: Homo sapiens
MALME-3M = test: NCI in vitro cytotoxicity (SRB); assay type: cell-based; conditions: Homo sapiens
M14 = test: NCI in vitro cytotoxicity (SRB); assay type: cell-based; conditions: Homo sapiens; Melanoma M14; 48 h exposure
IGROV1 = test: NCI in vitro cytotoxicity (SRB); assay type: cell-based; conditions: Homo sapiens, IGROV-1
OVCAR-3 = test: NCI in vitro cytotoxicity (SRB); assay type: cell-based; conditions: Homo sapiens
SK-OV-3 = test: NCI in vitro cytotoxicity (SRB); assay type: cell-based; conditions: Homo sapiens; Ovarian SK-OV-3; 48 h exposure
786-0 = test: NCI in vitro cytotoxicity (SRB); assay type: cell-based; conditions: Homo sapiens; Renal 786-0; 48 h exposure
ACHN = test: NCI in vitro cytotoxicity (SRB); assay type: cell-based; conditions: Homo sapiens; Renal ACHN; 48 h exposure
TK-10 = test: NCI in vitro cytotoxicity (SRB); assay type: cell-based; conditions: Homo sapiens; Renal TK-10; 48 h exposure
MDA-MB- = test: NCI in vitro cytotoxicity (SRB); assay type: cell-based; conditions: Homo sapiens; Breast MDA-MB-; 48 h exposure
HS 578T = test: NCI in vitro cytotoxicity (SRB); assay type: cell-based; conditions: Homo sapiens; Breast HS 578T; 48 h exposure
MDA-MB-435 = test: NCI in vitro cytotoxicity (SRB); assay type: cell-based; conditions: Homo sapiens; Breast MDA-MB-435; 48 h exposure
T-47D = test: NCI in vitro cytotoxicity (SRB); assay type: cell-based; conditions: Homo sapiens, T47D; Breast T-47D; 48 h exposure
PC-3 = test: NCI in vitro cytotoxicity (SRB); assay type: cell-based; conditions: Homo sapiens; Prostate PC-3; 48 h exposure
DU-145 = test: NCI in vitro cytotoxicity (SRB); assay type: cell-based; conditions: Homo sapiens
UACC-62 = test: NCI in vitro cytotoxicity (SRB); assay type: cell-based; conditions: Homo sapiens; Melanoma UACC-62; 48 h exposure
Lung A-549 = conditions: human
Liver HEP-2 = conditions: human
[1] = Non-smallcell lung HOP-62, 48 h exposure
[2] = Melanoma LOX IMVI, 48 h exposure
[3] = Melanoma MALME-3M, 48 h exposure

Question: With `COc1cc2c(cc1OCCCN1CCN(C(=S)SCCC(C#N)(c3ccccc3)c3ccccc3)CC1)N=C[C@@H]1CCCN1C2=O` [Compound 12b, 3-cyano-3,3-diphenylpropyl 4-(3-[(11aS)-7-(methyloxy)-5-oxo-2,3,5,11a-tetrahydro-1H-benzo[e]pyrrolo[1,2-a][1,4]diazepin-8-yl]oxypropyl)hexahydro-1-pyrazinecarbodithioate] as the molecule, how does the “ΔTm after incubation at 37° C. for 0 h” value (calf thymus DNA (CT-DNA)) read?
Answer: The value was 2.0 °C.

Question: And the “ΔTm after incubation at 37° C. for 18 h” value (calf thymus DNA (CT-DNA))?
Answer: Its value is 4.0 °C.

Question: What about the LC50 (50% lethal concentration) (Leukemia panel) of the same molecule?
Answer: Its LC50 (50% lethal concentration) is 55 µM.

Question: What about the “Log10 GI50 (concentration in mol/L)” value (Leukemia panel) of the same molecule?
Answer: The value was −6.63 mol/L.

Question: And the LC50 (Melanoma panel)?
Answer: Its LC50 is 5.5 µM.

Question: What about the “Log10 GI50 (concentration in mol/L)” value (Melanoma panel) of the same molecule?
Answer: The value was −5.94 mol/L.

Question: And the LC50 (50% lethal concentration) (Ovarian panel)?
Answer: Its LC50 (50% lethal concentration) is 18.6 µM.

Question: What about the “Log10 GI50 (concentration in mol/L)” value (Ovarian panel) of the same molecule?
Answer: The value was −6.03 mol/L.

Question: And the “Log10 GI50 (concentration in mol/L)” value (Breast panel)?
Answer: The value was −6.13 mol/L.

Question: What about the LC50 (Breast panel) of the same molecule?
Answer: The LC50 was 37.2 µM.

Question: What about the GI50 (HL-60(TB)) of the same molecule?
Answer: The GI50 was 0.25 µM.

Question: What about the GI50 (K-562) of the same molecule?
Answer: Its GI50 is 0.26 µM.

Question: What about the GI50 (SR; Leukemia SR, 48 h exposure) of the same molecule?
Answer: Its GI50 is 0.18 µM.

Question: And the GI50 (SR; leukemia SR)?
Answer: Its GI50 is 0.18 µM.

Question: And the GI50 (HOP-62; [1])?
Answer: The GI50 was 0.12 µM.

Question: And the GI50 (HOP-62; non-small cell lung HOP-62)?
Answer: Its GI50 is 0.21 µM.

Question: What about the GI50 (HOP-92) of the same molecule?
Answer: Its GI50 is 1.07 µM.

Question: What about the GI50 (NCI-H23) of the same molecule?
Answer: The GI50 was 1.4 µM.

Question: And the GI50 (NCI-H460)?
Answer: The GI50 was 0.77 µM.

Question: And the GI50 (COLO 205)?
Answer: The GI50 was 1.3 µM.

Question: What about the GI50 (SF-539) of the same molecule?
Answer: The GI50 was 1.44 µM.

Question: And the GI50 (LOX IMVI; [2])?
Answer: The GI50 was 0.6 µM.

Question: And the GI50 (LOX IMVI; melanoma LOX IMVI)?
Answer: The GI50 was 0.6 µM.

Question: What about the GI50 (MALME-3M; [3]) of the same molecule?
Answer: The GI50 was 0.93 µM.

Question: What about the GI50 (MALME-3M; melanoma MALME-3M) of the same molecule?
Answer: Its GI50 is 0.93 µM.

Question: And the GI50 (M14)?
Answer: Its GI50 is 1.17 µM.

Question: What about the GI50 (IGROV1; Ovarian IGROV1, 48 h exposure) of the same molecule?
Answer: The GI50 was 0.3 µM.

Question: And the GI50 (IGROV1; ovarian IGROV1)?
Answer: Its GI50 is 0.3 µM.

Question: What about the GI50 (OVCAR-3; Ovarian OVCAR-3, 48 h exposure) of the same molecule?
Answer: The GI50 was 0.28 µM.

Question: And the GI50 (OVCAR-3; ovarian OVCAR-3)?
Answer: The GI50 was 0.28 µM.

Question: What about the GI50 (SK-OV-3) of the same molecule?
Answer: The GI50 was 2.69 µM.

Question: What about the GI50 (786-0) of the same molecule?
Answer: The GI50 was 1.06 µM.

Question: And the GI50 (ACHN)?
Answer: Its GI50 is 0.94 µM.

Question: What about the GI50 (TK-10) of the same molecule?
Answer: The GI50 was 0.65 µM.

Question: What about the GI50 (MDA-MB-) of the same molecule?
Answer: Its GI50 is 1.41 µM.

Question: What about the GI50 (HS 578T) of the same molecule?
Answer: Its GI50 is 0.56 µM.

Question: And the GI50 (MDA-MB-435)?
Answer: Its GI50 is 0.55 µM.

Question: And the GI50 (T-47D)?
Answer: Its GI50 is 0.57 µM.

Question: What about the GI50 (PC-3) of the same molecule?
Answer: Its GI50 is 0.34 µM.

Question: What about the GI50 (DU-145; Prostate DU-145, 48 h exposure) of the same molecule?
Answer: Its GI50 is 0.26 µM.

Question: And the GI50 (DU-145; prostate DU-145)?
Answer: The GI50 was 0.26 µM.

Question: What about the GI50 (UACC-62) of the same molecule?
Answer: Its GI50 is 1.06 µM.

Question: Which results are given for `COc1cc2c(cc1OCCCCN1CCN(C(=S)SCCC(C#N)(c3ccccc3)c3ccccc3)CC1)N=C[C@@H]1CCCN1C2=O` [Compound 12c, 3-cyano-3,3-diphenylpropyl 4-(4-[(11aS)-7-(methyloxy)-5-oxo-2,3,5,11a-tetrahydro-1H-benzo[e]pyrrolo[1,2-a][1,4]diazepin-8-yl]oxybutyl)hexahydro-1-pyrazinecarbodithioate]?
Answer: ΔTm after incubation at 37° C. for 0 h (calf thymus DNA (CT-DNA)): 2.0 °C; ΔTm after incubation at 37° C. for 18 h (calf thymus DNA (CT-DNA)): 2.1 °C; LC50 (50% lethal concentration) (Leukemia panel): 100 µM; Log10 GI50 (concentration in mol/L) (Leukemia panel): −6.26 mol/L; LC50 (Melanoma panel): 7.41 µM; Log10 GI50 (concentration in mol/L) (Melanoma panel): −5.90 mol/L; LC50 (50% lethal concentration) (Ovarian panel): 55 µM; Log10 GI50 (concentration in mol/L) (Ovarian panel): −5.82 mol/L; Log10 GI50 (concentration in mol/L) (Breast panel): −6.02 mol/L; LC50 (Breast panel): 66.1 µM; GI50 (HL-60(TB)): 0.32 µM; GI50 (K-562): 3.29 µM; GI50 (SR; Leukemia SR, 48 h exposure): 0.25 µM; GI50 (HOP-62; [1]): 0.71 µM; GI50 (HOP-92): 1.07 µM; GI50 (NCI-H23): 1.68 µM; GI50 (NCI-H460): 1.25 µM; GI50 (COLO 205): 1.4 µM; GI50 (SF-539): 1.69 µM; GI50 (LOX IMVI; [2]): 0.69 µM; GI50 (MALME-3M; [3]): 1.36 µM; GI50 (M14): 1.25 µM; GI50 (IGROV1; Ovarian IGROV1, 48 h exposure): 0.42 µM; GI50 (OVCAR-3; Ovarian OVCAR-3, 48 h exposure): 1.2 µM; GI50 (SK-OV-3): 2.96 µM; GI50 (786-0): 1.28 µM; GI50 (ACHN): 1.16 µM; GI50 (TK-10): 1.26 µM; GI50 (MDA-MB-): 1.53 µM; GI50 (HS 578T): 0.72 µM; GI50 (MDA-MB-435): 1.04 µM; GI50 (T-47D): 0.57 µM; GI50 (PC-3): 0.69 µM; GI50 (DU-145; Prostate DU-145, 48 h exposure): 1.47 µM; GI50 (UACC-62): 1.32 µM; Preliminary in vitro cytotoxicity data (Lung A-549): 31%; Preliminary in vitro cytotoxicity data (Liver HEP-2): 69%
